Results taken from ChEMBL document CHEMBL4334494, “Recent advances in the targeting of human DNA ligase I as a potential new strategy for cancer treatment” (Eur J Med Chem, 2019).

Experiments:
[1] = target: T1, DNA ligase 1 (Homo sapiens, UniProt P18858); assay: Inhibition of human DNA ligase 1 at 50 uM using 52-mer DNA/25-mer DNA/27-mer DNA as substrate by fluorescence assay relative to control
[2] = test system: HepG2; assay: Antiproliferative activity against human HepG2 cells at 100 uM relative to control; assay type: functional
[3] = test system: A549; assay: Antiproliferative activity against human A549 cells at 100 uM relative to control; assay type: functional
[4] = test system: HCT-116; assay: Antiproliferative activity against human HCT116 cells at 100 uM relative to control; assay type: functional
[5] = test system: DLD-1; assay: Antiproliferative activity against human DLD1 cells at 100 uM relative to control; assay type: functional
[6] = test system: MDA-MB-231; assay: Antiproliferative activity against human MDA-MB-231 cells at 100 uM relative to control; assay type: functional
[7] = test system: HEK293; assay: Cytotoxicity against HEK293 cells at 100 uM relative to control; assay type: cell-based; conditions: human, hek293, 100 µM
[8] = target: T1, DNA ligase 1; assay: Inhibition of human DNA ligase 1 using 52-mer DNA/25-mer DNA/27-mer DNA as substrate by fluorescence assay
[9] = test system: DLD-1; assay: Antiproliferative activity against human DLD1 cells after 48 hrs by MTT assay; assay type: functional, cell-based; conditions: DLD-1, 48 h
[10] = test system: HepG2; assay: Antiproliferative activity against human HepG2 cells after 48 hrs by MTT assay; assay type: functional, cell-based; conditions: HepG2, 48 h
[11] = test system: MDA-MB-231; assay: Antiproliferative activity against human MDA-MB-231 cells after 48 hrs by MTT assay; assay type: functional, cell-based; conditions: MDA-MB-231, 48 h
[12] = target: T1, DNA ligase 1; assay: Inhibition of human DNA ligase 1 expressed in Escherichia coli BL21DE3RP cells at 50 uM using 52-mer DNA/25-mer DNA/27-mer DNA as substrate after 30 mins by Cyanin3 dye-based fluorescence assay relative to control
[13] = test system: HCT-116; assay: Antiproliferative activity against human HCT116 cells after 48 hrs by MTT assay; assay type: functional, cell-based; conditions: HCT-116, 48 h
[14] = test system: HT-29; assay: Antiproliferative activity against human HT-29 cells after 48 hrs by MTT assay; assay type: functional, cell-based; conditions: HT-29, 48 h
[15] = test system: HeLa; assay: Antiproliferative activity against human HeLa cells after 48 hrs by MTT assay; assay type: functional, cell-based
[16] = test system: 4T1; assay: Antiproliferative activity against mouse 4T1 cells after 48 hrs by MTT assay; assay type: functional, cell-based; conditions: 4T1, 48 h

T1 sequence (P18858 whole entry): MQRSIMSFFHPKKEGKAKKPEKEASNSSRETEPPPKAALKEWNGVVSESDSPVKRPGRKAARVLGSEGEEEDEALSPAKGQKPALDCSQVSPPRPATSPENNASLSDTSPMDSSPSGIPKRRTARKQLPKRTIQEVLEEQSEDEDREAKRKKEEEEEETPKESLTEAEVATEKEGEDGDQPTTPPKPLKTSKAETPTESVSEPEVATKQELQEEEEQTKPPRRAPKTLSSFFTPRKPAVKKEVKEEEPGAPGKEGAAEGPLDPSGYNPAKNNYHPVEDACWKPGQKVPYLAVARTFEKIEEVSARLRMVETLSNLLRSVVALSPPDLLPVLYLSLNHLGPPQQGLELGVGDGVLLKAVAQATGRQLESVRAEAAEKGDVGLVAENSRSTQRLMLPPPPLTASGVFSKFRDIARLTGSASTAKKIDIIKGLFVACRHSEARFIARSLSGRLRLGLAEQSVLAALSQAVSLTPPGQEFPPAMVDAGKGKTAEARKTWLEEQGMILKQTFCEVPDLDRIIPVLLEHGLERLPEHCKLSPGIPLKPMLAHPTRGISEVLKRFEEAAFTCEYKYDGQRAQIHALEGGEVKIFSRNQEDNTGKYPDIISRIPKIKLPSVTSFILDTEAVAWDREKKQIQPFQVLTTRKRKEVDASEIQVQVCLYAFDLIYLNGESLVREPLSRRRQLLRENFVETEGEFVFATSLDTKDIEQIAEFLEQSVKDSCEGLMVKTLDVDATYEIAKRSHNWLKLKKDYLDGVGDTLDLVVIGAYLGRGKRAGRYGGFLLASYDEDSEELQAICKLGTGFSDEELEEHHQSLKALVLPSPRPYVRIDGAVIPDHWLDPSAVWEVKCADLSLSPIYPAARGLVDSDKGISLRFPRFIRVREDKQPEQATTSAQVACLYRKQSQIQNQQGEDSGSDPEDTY

SMILES | inhibition at 100 µM [2] [%] | inhibition at 100 µM [3] [%] | inhibition at 100 µM [4] [%] | inhibition at 100 µM [5] [%] | inhibition at 100 µM [6] [%] | Activity [7] [%] | also measured
O=C1NC(=O)/C(=C/c2ccc(OCCCCCOc3cccc(C(=O)/C=C/c4ccc5c(c4)OCO5)c3)cc2)S1 |  |  |  |  |  |  | inhibition [1]: 99.6%
CCOC(=O)C1=C(C)NC(=O)NC1c1cc(C)c(O)c(/C=N/NC(=S)NC)c1 (centres undefined) | > 80 | > 80 | > 80 | > 80 | > 80 | > 80 | 
C[C@H]1[C@H](C)CC[C@]2(C(=O)O)CC[C@]3(C)C(=CC[C@@H]4[C@@]5(C)CC[C@H](O)C(C)(C)[C@@H]5CC[C@]43C)[C@H]12 [URSOLIC ACID] |  |  |  |  |  |  | IC50 [8]: 263 µM
CCOC(=O)C1=C(C)NC(=S)NC1c1cc(/C=N/NC(=S)Nc2ccccc2)c(O)c(C(C)(C)C)c1 (centres undefined) | < 80 | < 80 | < 80 | < 80 | < 80 | < 80 | 
COc1ccc(NC(=S)NCC23C=CC(O2)C2C(=O)N(c4ccccc4)C(=O)C23)c([N+](=O)[O-])c1 (centres undefined) |  |  |  |  |  |  | inhibition [1]: 56.2%
O=c1c(O)c(-c2ccc(O)cc2O)oc2cc(O)cc(O)c12 [MORIN] |  |  |  |  |  |  | IC50 [8]: 225 µM
CCOC(=O)C1=C(C)NC(=O)NC1c1cc(/C=N/NC(N)=S)c(O)c(C(C)(C)C)c1 (centres undefined) | > 80 | > 80 | > 80 | > 80 | > 80 | > 80 | 
CCOC(=O)N1CCN(CC(=O)Nc2cc(C)nc3ccc(NC(=O)Nc4ccc(C)c(Cl)c4)cc23)CC1 |  |  |  |  |  |  | inhibition [1]: 98.6%
O=c1c(O)c(-c2cc(O)c(O)c(O)c2)oc2cc(O)cc(O)c12 [MYRICETIN] |  |  |  |  |  |  | IC50 [8]: 88 µM
CCOC(=O)C1=C(C)NC(=O)NC1c1cc(/C=N/NC(N)=O)c(O)c(C(C)(C)C)c1 (centres undefined) | < 80 | < 80 | < 80 | < 80 | < 80 | < 80 | 
C/C=C/C=C1\C=Cc2c(C(=O)OC)coc(=O)c21 [FULVOPLUMIERIN] |  |  |  |  |  |  | IC50 [8]: 356 µM
CCOC(=O)C1=C(C)NC(=O)NC1c1cc(C)c(O)c(/C=N/NC(N)=O)c1 (centres undefined) | < 80 | < 80 | < 80 | < 80 | < 80 | < 80 | 
CCOC(=O)C1=C(C)NC(=S)NC1c1cc(/C=N/NC(=S)Nc2ccc(C)cc2)c(O)c(C(C)(C)C)c1 (centres undefined) | < 80 | < 80 | < 80 | < 80 | < 80 | < 80 | 
CCCCNC(=S)N1C/C(=C\c2ccc(C)cc2)C(=O)/C(=C/c2ccc(C)cc2)C1 |  |  |  |  |  |  | IC50 [9]: < 10 µM; IC50 [10]: < 10 µM; IC50 [11]: < 10 µM; inhibition [12]: > 75%; IC50 [13]: < 10 µM; IC50 [14]: < 10 µM; IC50 [15]: < 10 µM; IC50 [16]: < 10 µM
CCOC(=O)C1=C(C)NC(=O)NC1c1cc(/C=N/NC(=S)Nc2ccccc2)c(O)c(C(C)(C)C)c1 (centres undefined) | > 80 | > 80 | > 80 | > 80 | > 80 | > 80 | 
COc1cc2c[n+](C)c3c4cc5c(cc4ccc3c2cc1OC)OCO5 [NITIDINE CHLORIDE] |  |  |  |  |  |  | IC50 [8]: 65.1 µM
CC(=O)c1ccc(NC(=O)Nc2ccc3nc(C)cc(NC(=O)c4ccccc4)c3c2)cc1 |  |  |  |  |  |  | inhibition [1]: 76.2%
CCCCNC(=S)N1C/C(=C\c2ccccc2C)C(=O)/C(=C/c2ccccc2C)C1 |  |  |  |  |  |  | IC50 [9]: < 10 µM; IC50 [10]: < 10 µM; IC50 [11]: < 10 µM; inhibition [12]: > 75%; IC50 [13]: < 10 µM; IC50 [14]: < 10 µM; IC50 [15]: < 10 µM; IC50 [16]: < 10 µM
CCOC(=O)C1=C(C)NC(=O)NC1c1cc(/C=N/NC(=O)Nc2cccc(OC)c2)c(O)c(C(C)(C)C)c1 (centres undefined) | > 80 | > 80 | > 80 | > 80 | > 80 | > 80 | 
CC(=O)c1ccc(NC(=O)Nc2ccc3nc(C)cc(NC(=O)c4ccco4)c3c2)cc1 |  |  |  |  |  |  | inhibition [1]: 42.4%
CCOC(=O)C1=C(C)NC(=S)NC1c1cc(/C=N/NC(=O)Nc2ccc(Cl)cc2)c(O)c(C(C)(C)C)c1 (centres undefined) | < 80 | < 80 | < 80 | < 80 | < 80 | < 80 | 
COc1ccc(N2C(=O)C3C4C=CC(CNC(=S)Nc5ccc(OC)cc5[N+](=O)[O-])(O4)C3C2=O)cc1 (centres undefined) |  |  |  |  |  |  | inhibition [1]: 65%
Cc1ccc(/C=C2\CN(C(=S)NC(=O)c3ccccc3)C/C(=C\c3ccc(C)cc3)C2=O)cc1 |  |  |  |  |  |  | IC50 [9]: < 10 µM; IC50 [10]: < 10 µM; IC50 [11]: < 10 µM; inhibition [12]: > 75%; IC50 [13]: < 10 µM; IC50 [14]: < 10 µM; IC50 [15]: < 10 µM; IC50 [16]: < 10 µM
